From patent publication US8058243B2, “Method for treating a brain cancer with ifenprodil” (HSC Research and Development Limited Partnership, priority 2006, dated 2011)
Structures can show the parent of a compound that is named as a salt. Where two headings read alike, the source gives them in different places.

System: murine neural precursor cells (neurosphere cultures)
Experiment: HTS of LOPAC library against secondary neurosphere cultures, MTT proliferation assay at 3 μM, day 7 (z score, P value)
Format: cell-based, mouse
[1] = yes/no: significantly inhibited neurosphere proliferation (P<0.01) in the primary screen
[2] = yes = significantly inhibited neurosphere proliferation (P<0.01) in the primary screen
[3] = LOPAC primary screen, neurosphere MTT proliferation, 3 μM, day 7
[4] = LOPAC library screen at 3 μM, secondary neurosphere cultures, MTT
[5] = primary LOPAC screen, 3 μM, MTT, neurosphere proliferation
[6] = yes/no: significantly inhibited neurosphere proliferation in the primary screen
[7] = yes/no: significantly inhibited neurosphere proliferation in primary screen
[8] = LOPAC screen, neurosphere MTT proliferation, 3 μM, day 7
[9] = yes/no: significantly inhibited neurosphere proliferation (P<0.01) in primary screen
[10] = LOPAC library screen, 3 μM, MTT, neurosphere cultures
[11] = LOPAC library screen at 3 μM, MTT, secondary neurosphere cultures, screened in singlets
[12] = LOPAC library screen, 3 μM, MTT, secondary neurosphere cultures, day 7

For CC1=C(/C=C/C(C)=C/C=C/C(C)=C/C=C/C=C(C)/C=C/C=C(C)/C=C/C2=C(C)C(=O)[C@@H](O)CC2(C)C)C(C)(C)C[C@H](O)C1=O [Astaxanthin], the “Z Score” value (168 h, 3 µM) was 1.571, the Z score (168 h, 3 µM) was 1.571 and the Activity [1] was “no”.
In the case of Cn1ccnc1 [1-Methylimidazole], the “Z Score” value (168 h, 3 µM) is reported as −0.8469, the Z score (168 h, 3 µM) is reported as −0.847 and the Activity [2] is reported as “no”.
With COc1cc([C@@H]2c3cc4c(cc3[C@H](O)[C@H]3COC(=O)[C@H]23)OCO4)cc(OC)c1OC [Podophyllotoxin] the “Z Score” value was −11.15, the Z score [3] was −11.147 and the Activity [1] was “yes”.
With CN(C)CCCN1c2ccccc2Sc2ccccc21 [Promazine hydrochloride] the “Z Score” value [4] was −0.8882, the Z score [3] was −0.888 and the Activity [1] was “no”.
In the case of C[N+](C)(C)CCCCCCCCCC[N+](C)(C)C.[Br-].[Br-] [Decamethonium dibromide], the “Z Score” value is reported as −1.572, the Z score [3] is reported as −1.572 and the Activity [1] is reported as “no”.
With Nc1nc2ccc(Cl)cc2c2nc(-c3ccco3)nn12 [CGS-15943] the “Z Score” value was 0.1783 and the Z score was 0.178.
With Cl.OC(CCN1CCCCC1)(c1ccccc1)C1CCCCC1 (stereo not shown) [Trihexylphenidyl hydrochloride] the Z score [5] was 1.215 and the Activity [6] was “no”.
For (S)-(−)-propafenone hydrochloride, the “Z Score” value [4] was −0.7524, the Z score [3] was −0.752 and the Activity [7] was “no”.
CC(C)NCC(O)COc1cccc2ccccc12.Cl (racemic) [(±)-Propranolol hydrochloride] was tested, and the Z score [3] was 0.357 and the Activity [7] was “no”.
COC1=C(OC)C(=O)c2ccccc2C1=O [2,3-Dimethoxy-1,4-naphthoquinone] was tested, and the “Z Score” value was −10.4, the Z score [3] was −10.398 and the Activity [1] was “yes”.
O=c1onc2cnc3ccccc3n12 [ODQ] was tested, and the “Z Score” value was −0.5922, the Z score [3] was −0.592 and the Activity [7] was “no”.
For Oc1cc2c(cc1O)[C@H]1c3ccccc3CN[C@@H]1CC2 (racemic) [Dihydrexidine hydrochloride], the “Z Score” value [4] was −0.4153, the Z score [8] was −0.415 and the Activity [9] was “no”.
For S-(−)-Lisuride, the “Z Score” value was −0.1473 and the Z score was −0.147.
With CC(=O)Oc1cc(C(C)C)c(OCCN(C)C)cc1C [Moxisylyte hydrochloride] the “Z Score” value [4] was −1.018, the Z score [3] was −1.018 and the Activity [2] was “no”.
COC[C@H]1OC(=O)c2coc3c2[C@@]1(C)C1=C(C3=O)[C@@H]2CCC(=O)[C@@]2(C)C[C@H]1OC(C)=O [Wortmannin from Penicillium funiculosum] was tested, and the “Z Score” value was 0.4079, the Z score [5] was 0.408 and the Activity [6] was “no”.
In the case of CN(C)CCC=C1c2ccccc2CCc2ccccc21 [Amitriptyline hydrochloride], the “Z Score” value (168 h, 3 µM) is reported as 0.7066, the Z score (168 h, 3 µM) is reported as 0.707 and the Activity [1] is reported as “no”.
Cl.Cl.NNCc1cccc(O)c1 [3-Hydroxybenzylhydrazine dihydrochloride] was tested, and the “Z Score” value was −0.4866, the Z score [3] was −0.487 and the Activity [9] was “no”.
With CN1CCCC1c1cccnc1.O=C(O)C(O)C(O)C(=O)O (single isomer, unassigned; (-)) [(−)-Nicotine hydrogen tartrate salt] the Activity was “no”, the “Z Score” value was 0.04498 and the Z score was 0.045.
For CC1=C(C(=O)O)N2C(=O)[C@@H](NC(=O)[C@H](N)C3=CCC=CC3)[C@H]2SC1 [Cephradine], the “Z Score” value [10] was 0.7112, the Z score [3] was 0.711 and the Activity [1] was “no”.
In the case of CC1=C(C)C(=O)C(CCCCC#CCCCC#CCO)=C(C)C1=O [AA-861], the “Z Score” value [11] is reported as 1.517 and the Z score [5] is reported as 1.517.
In the case of COc1ccccc1N1CCN(CC(O)COc2cccc3ccccc23)CC1 (stereo not shown) [Naftopidil dihydrochloride], the “Z Score” value [4] is reported as −0.1172, the Z score [3] is reported as −0.117 and the Activity [7] is reported as “no”.
NC(=O)c1ncn([C@@H]2O[C@H](CO)[C@@H](O)[C@H]2O)c1O [Mizoribine] was tested, and the “Z Score” value [11] was 1.642.
With CCCN(CCC)C1Cc2cc(OC)c(OC)cc2C1.O=C(O)/C=C\C(=O)O [U-99194A meleate] the Z score [3] was 1.255 and the Activity [1] was “no”.
CN(C)C(N)=NCCC[C@H](N)C(=O)O.Cl was tested, and the “Z Score” value was −1.373.
With CCC1(c2ccc(N)cc2)CCC(=O)NC1=O (stereo not shown) [(B1)-p-Aminoglutethimide] the “Z Score” value was −0.4441.
O=C(O)C1CN(CCCP(=O)(O)O)CCN1 (stereo not shown) [(B1)-CPP] was tested, and the “Z Score” value was 0.3213.
For CCCN1CCOC2c3cc(O)ccc3OCC21.Cl (racemic) [(±)-PD 128,907 hydrochloride], the Z score [3] was 1.164 and the Activity [7] was “no”.
In the case of Cc1ccccc1CNc1ncnc2c1ncn2[C@@H]1O[C@H](CO)[C@@H](O)[C@H]1O [Metrifudil], the “Z Score” value [4] is reported as −0.2123, the Z score [3] is reported as −0.212 and the Activity [2] is reported as “no”.
CC(C)C[C@H]1C(=O)N2CCC[C@H]2[C@]2(O)O[C@](NC(=O)[C@@H]3C=C4c5cccc6[nH]c(Br)c(c56)C[C@H]4N(C)C3)(C(C)C)C(=O)N12.CS(=O)(=O)O [(+)-Bromocriptine methanesulfonate] was tested, and the “Z Score” value was 0.02792, the Z score [5] was 0.028 and the Activity [6] was “no”.
In the case of O=C1O/C(=C/Br)CCC1c1cccc2ccccc12 (stereo not shown) [Bromoenol lactone], the “Z Score” value (168 h, 3 µM) is reported as 0.2484, the Z score (168 h, 3 µM) is reported as 0.248 and the Activity [6] is reported as “no”.
With N[C@@H]1CONC1=O [D-Cycloserine] the “Z Score” value [12] was −1.24, the Z score [8] was −1.240 and the Activity [9] was “no”.
O=C1c2c(O)ccc(O)c2C(=O)c2c(NCCNCCO)ccc(NCCNCCO)c21 [Mitoxantrone] was tested, and the “Z Score” value [12] was −10.21, the Z score [3] was −10.205 and the Activity [2] was “yes”.
In the case of CCCNC(=O)NS(=O)(=O)c1ccc(Cl)cc1 [Chlorpropamide], the “Z Score” value [4] is reported as −0.1901, the Z score [5] is reported as −0.190 and the Activity [6] is reported as “no”.
For Cl.FC(F)(F)c1cc(CO[C@H]2CCCN[C@H]2c2ccccc2)cc(C(F)(F)F)c1 [L-733,060 hydrochloride], the “Z Score” value was −1.465, the Z score [3] was −1.465 and the Activity [2] was “no”.
NC(N)=NCCCCN=C(N)N [Arcaine sulfate] was tested, and the “Z Score” value [4] was −0.3299, the Z score [3] was −0.330 and the Activity [7] was “no”.
For O=c1c(O)c(-c2ccc(O)cc2O)oc2cc(O)cc(O)c12 [Morin], the “Z Score” value (168 h, 3 µM) was −2.216, the Z score (168 h, 3 µM) was −2.216 and the Activity [2] was “no”.
In the case of Nc1nc2ccc(OC(F)(F)F)cc2s1 [Riluzole], the “Z Score” value [4] is reported as −1.033 and the Z score [3] is reported as −1.033.
CCCN(CCc1ccccc1)C1CCc2c(O)cccc2C1.Cl (stereo not shown) [(B1)-PPHT hydrochloride] was tested, and the “Z Score” value was −1.915.
Cl.Cl.Clc1cccc(N2CCNCC2)c1 [1-(3-Chlorophenyl)piperazine dihydrochloride] was tested, and the Z score [8] was 0.952 and the Activity [9] was “no”.
For CN1C(C(=O)Nc2ccccn2)=C(O)c2ccccc2S1(=O)=O [Piroxicam], the “Z Score” value [10] was 0.2527, the Z score [3] was 0.253 and the Activity [2] was “no”.
In the case of NCCCC(=O)O [GABA], the “Z Score” value is reported as −0.4389, the Z score [5] is reported as −0.439 and the Activity [6] is reported as “no”.
For C[N+]1(C)CCN(c2ccccc2)CC1.[I-] [1,1-Dimethyl-4-phenyl-piperazinium iodide], the “Z Score” value was −1.057, the Z score [8] was −1.057 and the Activity [9] was “no”.
C[N+]1(C)[C@@H]2CC[C@H]1C[C@@H](OC(=O)C(CO)c1ccccc1)C2 (stereo partly shown) [Atropine methyl nitrate] was tested, and the “Z Score” value [10] was 1.292, the Z score [3] was 1.292 and the Activity [7] was “no”.
For CN(C)C(=O)Oc1ccc[n+](C)c1 [Pyridostigmine bromide], the “Z Score” value was 0.2311, the Z score [3] was 0.231 and the Activity [7] was “no”.
N#CC(C#N)=Cc1cc(O)c(O)c(O)c1 [Tyrphostin 25] was tested, and the “Z Score” value was −0.2591, the Z score [3] was −0.259 and the Activity [7] was “no”.
In the case of NC(=O)c1cc[n+](CC2=C(C(=O)O)N3C(=O)[C@@H](NC(=O)[C@@H](c4ccccc4)S(=O)(=O)[O-])[C@H]3SC2)cc1 [Cefsulodin sodium salt hydrate], the “Z Score” value [12] is reported as −2.277, the Z score [3] is reported as −2.277 and the Activity [1] is reported as “no”.
With CC(=O)C(C)=NO [2,3-Butanedione monoxime] the “Z Score” value (168 h, 3 µM) was −1.81, the Z score (168 h, 3 µM) was −1.810 and the Activity [6] was “no”.
In the case of COc1cccc(C(=O)NCCN2CCN(c3ccc(Cl)cc3)CC2)c1 [N-(2-[4-(4-Chlorophenyl)piperazin-1-yl]ethyl)-3-methoxybenzamide], the “Z Score” value [10] is reported as 0.3828, the Z score [3] is reported as 0.383 and the Activity [1] is reported as “no”.
In the case of COc1ccccc1CNCCCCCCNCCCCCCCCNCCCCCCNCc1ccccc1OC [Methoctramine (31), Methoctramine, reference compound], the “Z Score” value (168 h, 3 µM) is reported as −7.012, the Z score (168 h, 3 µM) is reported as −7.012 and the Activity [1] is reported as “yes”.
In the case of Cn1cnc2c(NCc3ccccc3)nc(NCCO)nc21 [Olomoucine], the “Z Score” value (168 h, 3 µM) is reported as 1.553 and the Z score (168 h, 3 µM) is reported as 1.553.
In the case of CC(C(=O)O)c1cccc(C(=O)c2ccccc2)c1 (stereo not shown) [Ketoprofen], the Activity is reported as “no”, the “Z Score” value [4] is reported as −1.164 and the Z score [3] is reported as −1.164.
With CNC(=O)Oc1ccc2c(c1)[C@]1(C)CCN(C)[C@@H]1N2C [(−)-Physostigmine] the “Z Score” value was −0.2178, the Z score [3] was −0.218 and the Activity [9] was “no”.
In the case of N[C@H](C(=O)O)[C@H]1C[C@@H]1C(=O)O, the “Z Score” value is reported as 1.233, the Z score [8] is reported as 1.233 and the Activity [9] is reported as “no”.
COc1cc2c(cc1O)CC[C@@H]1[C@@H]2CC[C@]2(C)[C@@H](O)CC[C@@H]12 [2-methoxyestradiol] was tested, and the “Z Score” value [4] was −0.9833, the Z score [3] was −0.983 and the Activity [2] was “no”.
With COc1ccc2c(c1)[C@]13CCCC[C@@H]1[C@H](C2)N(C)CC3 the “Z Score” value was −0.7932, the Z score [3] was −0.793 and the Activity [1] was “no”.
